Columns and labels:
αvβ6 = αvβ6 (Homo sapiens (Human), UniProt P06756+P18564); experiment: αVβ6–LAP-TGF β1 integrin binding assay (integrin-coupled beads, flow cytometry); conditions: for IC50: ligand LAP TGF-β1; for αvβ8/αvβ6: ratio of αvβ8 IC50 to αvβ6 IC50
From the text: (§1) All αV Integrins are known to bind to proteins with a RGD motif. Two RGD ligands were used in this study: Vitronectin (VN) as a ligand for αVβ3 and αVβ5 (Wayner et al., J. Cell Biol., 113 (4), 919-929, 1991), and LAP TGF-β1 (LAP1) as a ligand for αVβ6 and αVβ8 (Rognoni et al., Nat. Med., 20(4): 350-359, 2014). CWHM12 was used as a positive control for αVβ6 and αVβ8 (Henderson et al., Nat. Med. 19(12), 10.1038/nm.3282 2013), and Cilengitide as a positive control for αVβ3 and αVβ5 (Kumar et al., J. Pharmacol. Exp. Ther., 283, 843-853, 1997).
(§2) The integrin coupled Dyna beads were allowed to interact with respective ligands. The integrin-ligand complex was detected with either Primary/Secondary Antibody conjugated with Fluorescein Isothiocyanate (FITC). For αVβ3 and αVβ5, Vitronectin was used as a ligand and a primary antibody conjugated with FITC (Anti-VN-FITC Ab) was used to detect the interaction. For αVβ6 and αVβ8, LAP-TGF (31 was used as ligand and a primary antibody against LAP1 (Anti-LAP1 Ab) and a secondary antibody conjugated with FITC were used to detect the αVβ6/αVβ8-LAP-TGF (31 complex. Fluorescence was measured by Flow Cytometry analysis.
(§3) 5 mg of Dyna beads were weighed in a low protein binding microfuge (Eppendorf) tube (1.5 mL volume). The beads were re-suspended in 1 mL of Sodium Phosphate Buffer and vortexed at high speed for 30 seconds. The tube was then placed in a tube roller and tilt rotated for 10 min. After tilt rotation, the tube was placed on the Magna Spin and the beads were allowed to settle. The supernatant was discarded and the beads were washed three times. The beads were then re-suspended in 100 μL of Sodium Phosphate Buffer and 20 μL of washed beads were distributed into 5 low protein binding Eppendorf tubes (1 mg of beads in each tube). The beads were used for coupling integrins.
(§4) 20 μL of (1 mg) of beads were mixed with 20 μL of integrins (20 μg) and 20 μL of 3 M Ammonium Sulfate solution (final concentration of ammonium sulfate was 1M) to achieve a Bead: Protein ratio of 5 mg:100 μg. The solution was mixed gently and placed in a tube roller and incubated at 37° C. for 16 hours.
(§5) αVβ6/αVβ8 coupled beads were treated with the ligand LAP TGF-β1 (LAP1) at room temperature for 3 hours. The complex (Integrin+Ligand) was then treated with primary Ab (Anti-LAP1 Ab) overnight at 4° C. The whole complex (Integrin+Ligand+Primary Ab) was treated with Secondary Ab conjugated with FITC and incubated for 2 hours. The complex was analyzed by either plate reader or Flow Cytometer.
(§6) 10 μL of αVβ6/αVβ8 coupled beads were taken for the experiment. The concentration of integrins was 10 nM. 10 μL of LAP1 was taken (10 nM for aVβ6 and 20 nM for aVβ8). Reaction between integrin coupled beads and LAP1 was considered as the full reaction, and reaction without LAP1 or a compound of the disclosure was considered as the blank reaction. The samples were incubated in low protein binding tubes at room temperature for 3 hours. The tubes were briefly spun and placed in a Magna spin. The supernatant was removed. The beads were washed with assay buffer twice to remove excess LAP1 and then re-suspended in […] assay buffer containing 1:200 anti-LAP1 Ab (primary Ab). The tubes were placed in a tube roller and incubated at 4° C. overnight. After a brief spin, the tubes were then placed in a Magna spin and the supernatant was removed. The beads were washed with assay buffer twice to remove excess primary Ab and then re-suspended in 150 μL of assay buffer containing 1:500 secondary Ab conjugated with FITC. The tubes were incubated at room temperature for 2 hours in a tube roller. After a brief spin, the tubes were placed in a Magna spin and the supernatant was removed. The beads were washed with assay buffer twice followed by PBS. The beads were then re-suspended in 300 μL of PBS and analyzed by a Flow Cytometer (BD FACSCalibur, Software—BDcell Quest Pro Version 6). […]

αvβ8 = αvβ8 (Homo sapiens (Human), UniProt P06756+P26012); experiment: αVβ8–LAP-TGF β1 integrin binding assay (integrin-coupled beads, flow cytometry); conditions: ligand LAP TGF-β1
Chain of αvβ8 (P06756 31-992): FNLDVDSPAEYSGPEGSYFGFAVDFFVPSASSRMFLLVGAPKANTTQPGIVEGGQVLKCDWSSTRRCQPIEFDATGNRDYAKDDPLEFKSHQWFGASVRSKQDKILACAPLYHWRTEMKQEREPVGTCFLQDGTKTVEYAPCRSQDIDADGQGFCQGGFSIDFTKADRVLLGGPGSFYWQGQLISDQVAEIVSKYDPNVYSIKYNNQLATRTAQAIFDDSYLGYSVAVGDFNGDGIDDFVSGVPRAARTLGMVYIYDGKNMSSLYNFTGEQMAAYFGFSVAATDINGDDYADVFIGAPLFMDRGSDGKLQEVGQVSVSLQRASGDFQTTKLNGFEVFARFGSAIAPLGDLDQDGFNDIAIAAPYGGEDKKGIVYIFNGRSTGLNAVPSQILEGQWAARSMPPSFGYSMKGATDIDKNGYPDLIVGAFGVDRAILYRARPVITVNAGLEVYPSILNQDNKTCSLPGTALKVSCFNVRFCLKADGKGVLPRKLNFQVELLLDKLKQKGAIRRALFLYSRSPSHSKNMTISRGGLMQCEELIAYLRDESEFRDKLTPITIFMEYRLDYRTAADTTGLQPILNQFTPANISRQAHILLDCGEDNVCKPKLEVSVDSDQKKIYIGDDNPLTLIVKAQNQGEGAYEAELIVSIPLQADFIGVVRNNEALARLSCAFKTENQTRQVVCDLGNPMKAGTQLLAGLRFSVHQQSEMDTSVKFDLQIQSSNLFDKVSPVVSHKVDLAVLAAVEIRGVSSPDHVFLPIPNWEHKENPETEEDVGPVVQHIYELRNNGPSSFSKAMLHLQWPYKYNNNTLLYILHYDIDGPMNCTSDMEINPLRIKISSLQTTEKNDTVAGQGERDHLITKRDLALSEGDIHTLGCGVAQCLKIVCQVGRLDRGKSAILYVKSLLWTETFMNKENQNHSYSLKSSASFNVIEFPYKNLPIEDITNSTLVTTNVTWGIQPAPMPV
Chain of αvβ8 (P26012 43-684): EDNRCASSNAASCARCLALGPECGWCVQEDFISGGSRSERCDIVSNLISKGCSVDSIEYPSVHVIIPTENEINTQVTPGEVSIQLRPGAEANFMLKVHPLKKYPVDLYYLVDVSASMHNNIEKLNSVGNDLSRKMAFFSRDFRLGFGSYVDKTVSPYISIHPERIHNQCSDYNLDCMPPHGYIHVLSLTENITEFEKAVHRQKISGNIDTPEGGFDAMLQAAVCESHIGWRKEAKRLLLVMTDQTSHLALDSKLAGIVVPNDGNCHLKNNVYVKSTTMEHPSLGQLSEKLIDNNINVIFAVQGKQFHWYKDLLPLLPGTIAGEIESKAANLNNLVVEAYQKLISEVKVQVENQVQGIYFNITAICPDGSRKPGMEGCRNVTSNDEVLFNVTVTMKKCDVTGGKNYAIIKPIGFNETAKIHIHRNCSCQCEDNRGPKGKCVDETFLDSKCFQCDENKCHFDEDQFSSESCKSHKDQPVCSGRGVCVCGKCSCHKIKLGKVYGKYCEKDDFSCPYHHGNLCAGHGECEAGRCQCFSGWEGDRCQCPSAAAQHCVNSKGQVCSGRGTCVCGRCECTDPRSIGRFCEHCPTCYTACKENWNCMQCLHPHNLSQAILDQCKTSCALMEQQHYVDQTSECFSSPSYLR
From the text: as §1, §2, §3, §4, §5, §6

αvβ3 = αvβ3 (Homo sapiens (Human), UniProt P05106+P06756); experiment: αVβ3–vitronectin integrin binding assay (integrin-coupled beads, flow cytometry); conditions: ligand vitronectin
Chain of αvβ3 (P06756 31-992): as the sequence (P06756 31-992) above
Chain of αvβ3 (P05106 27-718): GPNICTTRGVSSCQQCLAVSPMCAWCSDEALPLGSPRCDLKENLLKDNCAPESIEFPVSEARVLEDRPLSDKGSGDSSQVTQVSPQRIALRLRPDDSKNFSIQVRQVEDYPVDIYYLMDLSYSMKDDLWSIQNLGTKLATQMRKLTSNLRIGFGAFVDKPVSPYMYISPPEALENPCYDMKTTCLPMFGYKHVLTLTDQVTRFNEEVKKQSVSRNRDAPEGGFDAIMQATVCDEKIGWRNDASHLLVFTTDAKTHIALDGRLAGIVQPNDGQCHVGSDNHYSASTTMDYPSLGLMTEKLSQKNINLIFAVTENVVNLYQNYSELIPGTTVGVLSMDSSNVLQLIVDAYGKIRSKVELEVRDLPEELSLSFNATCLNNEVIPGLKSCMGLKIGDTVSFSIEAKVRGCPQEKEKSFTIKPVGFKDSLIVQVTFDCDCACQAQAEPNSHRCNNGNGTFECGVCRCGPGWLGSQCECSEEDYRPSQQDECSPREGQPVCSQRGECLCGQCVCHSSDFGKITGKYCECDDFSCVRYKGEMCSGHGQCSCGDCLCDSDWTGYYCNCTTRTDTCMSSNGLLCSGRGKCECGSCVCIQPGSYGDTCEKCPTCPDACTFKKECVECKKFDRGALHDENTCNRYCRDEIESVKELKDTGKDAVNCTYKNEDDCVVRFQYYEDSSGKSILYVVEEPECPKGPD
From the text: as §1, §2, §3, §4
αVβ3/αVβ5 coupled beads were treated with the ligand at room temperature for 3 hours. The complex (Integrin+Ligand) was then treated with Anti-Vitronectin Ab conjugated with FITC overnight at 4° C. The complex was analyzed by either plate reader or Flow Cytometer.
10 μL of αVβ3/αVβ5 coupled beads were taken for the experiment. The concentration of integrins was 10 nM. 10 μL of vitronectin was taken. The concentration was 10 nM. Reaction between integrin coupled beads and vitronectin was considered as the full reaction, and reaction without vitronectin or a compound of the disclosure was considered as the blank reaction. The samples were incubated in low protein binding tubes at room temperature for 3 hours. The tubes were briefly spun and placed in a Magna spin. The supernatant was then removed. The beads were washed with assay buffer twice to remove excess vitronectin and then re-suspended in 150 μL of assay buffer containing 1:500 Anti-vitronectin Ab conjugated with FITC. The tubes were placed in a tube roller and incubated at 4° C. overnight. […] The beads were then re-suspended in […] PBS and analyzed by a Flow Cytometer (BD FACSCalibur, Software—BD Cell Quest Pro Version 6).
The samples were acquired using a BD FACSCalibur system and analyzed with BD Cell quest pro Version 6. […] Percentage of binding was calculated with respect to full reaction. […]

[1] = system: bleomycin induced lung stiffness; experiment: Bleomycin induced mouse pulmonary fibrosis model (lung stiffness, pressure-volume curves); type: in vivo, male C57BL/6 mice; conditions: for reversal of bleomycin induced lung stiffness, compared to the vehicle control group: all doses tested (10, 30, 100 mg/kg PO, day 0-21); for reversal of lung stiffness compared to positive control pirfenidone 100 mg/kg BID: mid- and high-dose groups (30 and 100 mg/kg PO)
Experimental: Experimental animals are randomly and prospectively assigned to groups. On day 0 and prior to bleomycin induction, animals are administered the first dose of vehicle or a compound of the present disclosure. Following dosing, all animals are anesthetized. A small diameter cannula is inserted into the trachea and saline or bleomycin is slowly infused into the lungs. Group 1 serves as an untreated control group and receives saline only (no bleomycin) on day 0. The other groups receive bleomycin on day 0. Treatments with vehicle (e.g., methylcellulose), positive control (e.g., Pirfenidone), or a compound of the present disclosure are administered once or twice daily via oral gavage (PO). All animals are weighed and evaluated daily for respiratory distress.
Prior to sacrifice, animals are anesthetized and once the animal is determined to be non-responsive a shallow incision is made. The trachea is isolated and a transverse cut is made between tracheal rings approximately half-way through the trachea. A tracheotomy is performed by the insertion of a cannula through the incision secured with surgical suture to the trachea. Following cannulation, the adapter end of the cannula is attached to the mechanical ventilator. The animal is ventilated and following an acclimation period, lung volume is standardized and each animal undergoes a measure of total respiratory impedance.
Ninety-five male C57BL/6 mice were randomly and prospectively assigned to one group of fifteen animals and eight groups of ten animals each. On day 0 and at least one hour prior to bleomycin induction, animals were administered the first dose of vehicle or test-article (i.e., a compound of the present disclosure). At least one hour following dosing, all mice were anesthetized with isoflurane and placed on their backs lying on a table at approximately 60°. A small diameter cannula was inserted into the trachea, and saline or bleomycin was slowly infused into the lungs in a volume of 40 μL.
Group 1 served as an untreated control group and received saline only (no bleomycin) on day 0. Groups 2-9 received 2.25 U/kg of bleomycin on day 0. The animals were then released into a recovery cage and allowed to wake up. From day 0 through day 21, treatments were administered once or twice daily via oral gavage (PO). Vehicle treated animals (Group 2) received 0.4% methylcellulose. Remaining animals received either Pirfenidone at 100 mg/kg (Group 3), Compound A15s at 100 mg/kg (Group 4), 30 mg/kg (Group 5) or 10 mg/kg (Group 6), or Compound A21 at 100 mg/kg (Group 7), 30 mg/kg (Group 8) or 10 mg/kg (Group 9).
All animals were weighed and evaluated daily for respiratory distress (defined as an increase in respiratory rate and/or obvious respiratory effort). Animals with severe respiratory distress, or animals that lost greater than 30% of their total starting body weight, were euthanized within 2 hours of observation.
On Day 21, prior to sacrifice, mice were anesthetized with IP injection of ketamine/xylazine (100 mg/kg, 10 mg/kg). Once the animal was determined to be non-responsive a shallow 2 cm vertical incision was made starting from 1 cm below the chin. The trachea was isolated and a transverse cut was made between tracheal rings approximately half-way through the trachea. A tracheotomy was performed by the insertion of an 18 gauge polyethylene cannula through the incision secured with surgical suture to the trachea. Following cannulation, the adapter end of the cannula was attached to the flexiVent mechanical ventilator. The animal was ventilated at 10 ml/kg tidal volume (VT), 150 breaths per minute and 3 cm H2O positive end expiratory pressure (PEEP). Following a 2-minute acclimation period, lung volume was standardized with 1, 6-second deep inflation to a pressure of 30 cm H2O followed by 2 pressure-volume measurements up to 40 ml/kg. […]

Chain of αvβ6 (P06756 31-992): as the sequence (P06756 31-992) above
Chain of αvβ6 (P18564 22-707): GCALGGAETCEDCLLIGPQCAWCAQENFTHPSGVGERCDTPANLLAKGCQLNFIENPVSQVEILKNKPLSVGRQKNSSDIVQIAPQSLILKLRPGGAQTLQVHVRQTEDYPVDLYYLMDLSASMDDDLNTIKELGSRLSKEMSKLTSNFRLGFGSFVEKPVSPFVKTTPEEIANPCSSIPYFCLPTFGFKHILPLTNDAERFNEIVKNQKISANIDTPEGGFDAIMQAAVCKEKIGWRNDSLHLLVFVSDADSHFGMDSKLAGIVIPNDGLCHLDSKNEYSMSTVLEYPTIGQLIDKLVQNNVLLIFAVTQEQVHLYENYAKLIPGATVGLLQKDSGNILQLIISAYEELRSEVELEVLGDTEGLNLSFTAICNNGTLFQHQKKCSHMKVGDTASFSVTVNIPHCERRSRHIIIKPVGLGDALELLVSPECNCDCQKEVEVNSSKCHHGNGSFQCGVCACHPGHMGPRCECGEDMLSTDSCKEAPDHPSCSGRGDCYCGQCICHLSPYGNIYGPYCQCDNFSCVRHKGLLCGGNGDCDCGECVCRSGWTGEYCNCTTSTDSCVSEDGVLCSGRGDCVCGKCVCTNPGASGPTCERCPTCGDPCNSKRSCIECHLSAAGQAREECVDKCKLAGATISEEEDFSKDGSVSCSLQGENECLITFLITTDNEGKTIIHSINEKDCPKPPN

SMILES | IC50 (αvβ6) | αvβ8/αvβ6 (αvβ6) | IC50 (αvβ8) | IC50 (αvβ3) | reversal of bleomycin induced lung stiffness, compared to the vehicle control group [1] | reversal of lung stiffness compared to positive control pirfenidone 100 mg/kg BID [1] | reversal of bleomycin induced lung stiffness, mid- and high-dose groups ([1]; 30 and 100 mg/kg PO, day 0-21) | lung stiffness compared to saline treated animal group (no bleomycin) ([1]; mid-dose group (30 mg/kg PO))
O=C(O)CC(CCCCCCc1ccc2c(n1)NCCC2)c1cnc2cc(C(F)(F)F)ccc2c1 (centres unmarked) [Compound A7, 9-(5,6,7,8-tetrahydro-1,8-naphthyridin-2-yl)-3-(7-(trifluoromethyl)quinolin-3-yl)nonanoic acid] | 11.6 nM | 6.93 | 80.6 nM |  |  |  |  | 
O=C(O)CC(CCCCCCc1ccc2c(n1)NCCC2)c1cnc2ccc(F)cc2c1 (centres unmarked) [Compound A4, 3-(6-fluoroquinolin-3-yl)-9-(5,6,7,8-tetrahydro-1,8-naphthyridin-2-yl)nonanoic acid] | 5.69 nM | 3.75 | 21.4 nM | 1.4 nM |  |  |  | 
COc1ccc([C@H](CC(=O)O)N2CCN(CCCc3ccc4c(n3)NCCC4)C2=O)cn1 [Compound A30s] |  | 1.83 |  |  |  |  |  | 
O=C(O)C[C@@H](c1ccc(OC(F)F)nc1)N1CCN(CCCc2ccc3c(n2)NCCC3)C1=O [Compound A1, (S)-3-(6-(difluoromethoxy)pyridin-3-yl)-3-(2-oxo-3-(3-(5,6,7,8-tetrahydro-1,8-naphthyridin-2-yl)propyl)imidazolidin-1-yl)propanoic acid] | 8.3 nM | 1.59 | 13.2 nM |  |  |  |  | 
O=C(O)CC(CCCCCCc1ccc2c(n1)NCCC2)c1cnc2cc(F)c(F)cc2c1 (centres unmarked) [Compound A6, 3-(6,7-difluoroquinolin-3-yl)-9-(5,6,7,8-tetrahydro-1,8-naphthyridin-2-yl)nonanoic acid] | 8.25 nM | 2.91 | 24 nM |  |  |  |  | 
O=C(O)C[C@@H](c1cccc(C(F)(F)F)c1)N1CCN(CCCc2ccc3c(n2)NCCC3)C1=O [Compound A15s, (S)-3-(2-oxo-3-(3-(5,6,7,8-tetrahydro-1,8-naphthyridin-2-yl)propyl)imidazolidin-1-yl)-3-(3-(trifluoromethyl)phenyl)propanoic acid] | 9.28 nM | 0.64 | 5.92 nM |  | reversed bleomycin induced lung stiffness at all doses tested | superior to the positive control pirfenidone | significant reversal of bleomycin induced lung stiffness | indistinguishable from the saline treated animal group

The next lines start with results.

IC50 (αvβ6) | αvβ8/αvβ6 (αvβ6) | IC50 (αvβ8) | IC50 (αvβ3) | SMILES | reversal of bleomycin induced lung stiffness, compared to the vehicle control group [1] | reversal of lung stiffness compared to positive control pirfenidone 100 mg/kg BID [1] | reversal of bleomycin induced lung stiffness, mid- and high-dose groups ([1]; 30 and 100 mg/kg PO, day 0-21) | lung stiffness compared to saline treated animal group (no bleomycin) ([1]; mid-dose group (30 mg/kg PO))
4.6 nM | 10.93 | 50.3 nM |  | O=C(O)CC(CCCCCCc1ccc2c(n1)NCCC2)c1cccc(C(F)(F)F)c1 (single isomer, unassigned) [Compound A21-2] |  |  |  | 
16.9 nM | 2.04 | 34.4 nM |  | O=C(O)CC(CCCCCCc1ccc2c(n1)NCCC2)c1cc(C(F)(F)F)ccc1F (centres unmarked) [Compound A28] |  |  |  | 
7.64 nM | 11.54 | 88.2 nM |  | O=C(O)CC(CCCCCCc1ccc2c(n1)NCCC2)c1cccc(C(F)(F)F)c1 (centres unmarked) [Compound A21] | reversed bleomycin induced lung stiffness at all doses tested | similar, if not better, reversal of bleomycin induced lung stiffness |  | 
17.5 nM | 2.02 | 35.4 nM |  | O=C(O)CC(CCCCCCc1ccc2c(n1)NCCC2)c1cc(Cl)cc(C(F)(F)F)c1 (centres unmarked) [Compound A24, 3-(3-chloro-5-(trifluoromethyl)phenyl)-9-(5,6,7,8-tetrahydro-1,8-naphthyridin-2-yl)nonanoic acid] |  |  |  | 

Reference: patent US11685738B2, “Fluorinated tetrahydronaphthyridinyl nonanoic acid derivatives and uses thereof” (OcuTerra Therapeutics, Inc., priority 2015, dated 2023)
